30 compounds from patent US20080064871A1, “Production Method of Nitrogen-Containing Fused Ring Compounds” (Japan Tobacco Inc., priority 2006, published 2008) can be followed below.

The target in the assay is T1, human URAT1 (Homo sapiens, UniProt Q96S37).
T1 construct: Human URAT1 full length cDNA was subcloned to expression vector pcDNA3.1; expressed in transfected cells; host or cells: HEK293 cells (pcDNA3.1, geneticin-selected)
T1 sequence (Q96S37 1-553): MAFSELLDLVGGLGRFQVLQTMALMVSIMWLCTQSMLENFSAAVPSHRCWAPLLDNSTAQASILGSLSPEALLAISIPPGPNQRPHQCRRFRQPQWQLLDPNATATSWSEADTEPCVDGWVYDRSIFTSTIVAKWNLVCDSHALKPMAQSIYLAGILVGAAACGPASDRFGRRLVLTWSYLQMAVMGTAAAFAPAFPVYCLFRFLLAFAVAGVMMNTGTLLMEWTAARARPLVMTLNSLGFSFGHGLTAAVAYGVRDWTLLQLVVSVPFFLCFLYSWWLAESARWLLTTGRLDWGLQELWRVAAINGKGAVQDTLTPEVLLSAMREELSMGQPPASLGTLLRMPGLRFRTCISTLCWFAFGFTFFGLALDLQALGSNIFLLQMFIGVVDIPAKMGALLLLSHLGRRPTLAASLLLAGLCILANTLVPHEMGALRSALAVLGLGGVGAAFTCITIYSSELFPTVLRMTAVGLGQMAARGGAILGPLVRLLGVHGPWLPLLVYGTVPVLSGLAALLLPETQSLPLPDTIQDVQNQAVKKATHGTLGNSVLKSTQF
The assay is described as follows: Uric acid transport inhibitory test using human URAT1-expressing cells. The class given is cell-based. The note with it: human URAT1 expressing HEK293 cells, uptake of 14C-labeled uric acid for 5 min, room temperature; read-out: hURAT1 (IC50, concentration necessary for inhibiting the uric acid transport rate by 50%). The source says: Reference Experimental Example 1 Uric Acid Transport Inhibitory Test Using Human Urat1-Expressing Cells
Human URAT1 full length cDNA was subcloned to expression vector pcDNA3.1 and human URAT1 gene was transfected into human embryonic kidney derived cell line (HEK293 cells) by liposome method using Lipofectamine2000. Simultaneously, HEK293 cells transfected with expression vector pcDNA3.1 alone (hereinafter mock cells) were also produced. HEK293 cells expressing human URAT1 gene or mock cells were selected with geneticin resistance as an index. The functional expression of human URAT1 gene was confirmed by a method similar to the following method, using transport of uric acid labeled with ^14C into the cells as an index.
Human URAT1 expressing HEK293 cells or mock cells were cultured in Dulbecco's modified Eagle's MEM medium (high glucose) containing 10% fetal bovine serum, 0.5 mg/mL geneticin sulfate, 100 units/mL penicillin and 100 μg/mL streptomycin under the conditions of 37° C. and 5% CO2 in an incubator. The cells were plated in a 96 well plate (poly-D-Lysine coated) at 1×10^5 cells/well and the following uric acid transport inhibitory test was performed 24 hr later. This test was performed at room temperature.
After the medium was removed by aspiration from each well, the cells were washed once with Hank's Balanced Salt Solution (HBSS) and preincubated with HBSS ([…]) for 5 min. HBSS was aspirated and an assay buffer (wherein NaCl in the above-mentioned HBSS had been substituted with Na-gluconate) containing various concentrations of the Example compound and a radioactive ligand (uric acid labeled with 14C; final concentration […]) was added to each well at […] and an uptake reaction was carried out for 5 min. After the reaction, the cells were washed twice with ice-cold HBSS ([…]), and Microscin ti TM 20 (PerkinElmer) was added at […]. The cells were lysed by stirring and the radioactivity of each well was measured in a liquid scintillation counter (TOP COUNT, Packard).
The uric acid transport rate (%) of the Example compound at each concentration was calculated relative to the radioactivity (difference in radioactivity between human URAT1 expressing HEK293 cells and mock cells without addition of Example compound (DMSO addition)) showing URAT1 specific uric acid transport as 100%, and the concentration (IC50) of the Example compound necessary for inhibiting the uric acid transport rate by 50% was determined. In Table-Table, “+++” means IC50 value of less than 100 nM, “++” means IC50 value of 100 nM to less than 1000 nM, and “+” means IC50 value of 1000 nM to less than 3000 nM.
As for `O=C(c1ccc(O)c(Cl)c1)N1CCOc2ccccc21` [Example 1, (3-chloro-4-hydroxyphenyl)-(2,3-dihydrobenzo[1,4]oxazin-4-yl)-methanone], the IC50 was under 100 nM. Next, `O=C(c1ccc(O)c(Br)c1)N1CCOc2ccccc21` [Example 2, (3-bromo-4-hydroxyphenyl)-(2,3-dihydrobenzo[1,4]oxazin-4-yl)-methanone]: under 100 nM; `O=C(c1cc(Cl)c(O)c(Cl)c1)N1CCOc2ccccc21` [Example 3, (3,5-dichloro-4-hydroxyphenyl)-(2,3-dihydrobenzo[1,4]oxazin-4-yl)-methanone]: under 100 nM.

For the compound `O=C(c1cc(Br)c(O)c(Br)c1)N1CCOc2ccccc21` [Example 4, (3,5-dibromo-4-hydroxyphenyl)-(2,3-dihydrobenzo[1,4]oxazin-4-yl)-methanone], the IC50 is under 100 nM.

Consider `O=C(c1cc(I)c(O)c(I)c1)N1CCOc2ccccc21` [Example 5, (2,3-dihydrobenzo[1,4]oxazin-4-yl)-(4-hydroxy-3,5-diiodophenyl)-methanone], for which the IC50 was under 100 nM. Take `O=C(c1cc(F)c(O)c(F)c1)N1CCOc2ccccc21` [Example 6, (3,5-difluoro-4-hydroxyphenyl)-(2,3-dihydrobenzo[1,4]oxazin-4-yl)-methanone]: the IC50 fell in the range of 100 to 1000 nM.

Turning to `Cc1cc(C(=O)N2CCOc3ccccc32)cc(C)c1O` [Example 7, (2,3-dihydrobenzo[1,4]oxazin-4-yl)-(4-hydroxy-3,5-dimethylphenyl)-methanone], the IC50 is 100 to 1000 nM. For `O=C(c1cc(Cl)c(O)c(Cl)c1)N1CCSc2ccccc21` [Example 8, (3,5-dichloro-4-hydroxyphenyl)-(2,3-dihydrobenzo[1,4]thiazin-4-yl)-methanone], the IC50 is 100 to 1000 nM. In the case of `O=C(c1cc(Cl)c(O)c(Cl)c1)N1CCS(=O)(=O)c2ccccc21` [Example 10, (3,5-dichloro-4-hydroxyphenyl)-(1,1-dioxo-2,3-dihydro-1H-1λ^6-benzo[1,4]thiazin-4-yl)-methanone], the IC50 lay within 100 to 1000 nM. As to `Oc1c(Cl)cc(C(=S)N2CCOc3ccccc32)cc1Cl` [Example 11, (3,5-dichloro-4-hydroxyphenyl)-(2,3-dihydrobenzo[1,4]oxazin-4-yl)-methanethione], the IC50 was under 100 nM. As for `Cc1ccc2c(c1)N(C(=O)c1cc(Cl)c(O)c(Cl)c1)CCO2` [Example 12, (3,5-dichloro-4-hydroxyphenyl)-(6-methyl-2,3-dihydrobenzo[1,4]oxazin-4-yl)-methanone], the figure is under 100 nM. Take `Cc1ccc2c(c1)OCCN2C(=O)c1cc(Cl)c(O)c(Cl)c1` [Example 13, (3,5-dichloro-4-hydroxyphenyl)-(7-methyl-2,3-dihydrobenzo[1,4]oxazin-4-yl)-methanone]: the IC50 fell in the range of 100 to 1000 nM. Next, `Cc1cccc2c1N(C(=O)c1cc(Cl)c(O)c(Cl)c1)CCO2` [Example 14, (3,5-dichloro-4-hydroxyphenyl)-(5-methyl-2,3-dihydrobenzo[1,4]oxazin-4-yl)-methanone]: under 100 nM; `Cc1cccc2c1OCCN2C(=O)c1cc(Cl)c(O)c(Cl)c1` [Example 15, (3,5-dichloro-4-hydroxyphenyl)-(8-methyl-2,3-dihydrobenzo[1,4]oxazin-4-yl)-methanone]: under 100 nM; `O=C(c1cc(Cl)c(O)c(Cl)c1)N1CCOc2ccc3ccccc3c21` [Example 16, (3,5-dichloro-4-hydroxyphenyl)-(2,3-dihydronaphtho[2,1-b][1,4]oxazin-1-yl)-methanone]: under 100 nM. Regarding `COc1ccc2c(c1)N(C(=O)c1cc(Cl)c(O)c(Cl)c1)CCO2` [Example 17, (3,5-dichloro-4-hydroxyphenyl)-(6-methoxy-2,3-dihydrobenzo[1,4]oxazin-4-yl)-methanone], the IC50 is under 100 nM.

With `COc1ccc2c(c1)OCCN2C(=O)c1cc(Cl)c(O)c(Cl)c1` [Example 18, (3,5-dichloro-4-hydroxyphenyl)-(7-methoxy-2,3-dihydrobenzo[1,4]oxazin-4-yl)-methanone], the IC50 was 100 to 1000 nM.

Turning to `O=C(c1cc(Cl)c(O)c(Cl)c1)N1CCOc2ccc(O)cc21` [Example 19, (3,5-dichloro-4-hydroxyphenyl)-(6-hydroxy-2,3-dihydrobenzo[1,4]oxazin-4-yl)-methanone], the IC50 lay within 100 to 1000 nM. For `O=C(c1cc(Cl)c(O)c(Cl)c1)N1CCOc2cc(O)ccc21` [Example 20, (3,5-dichloro-4-hydroxyphenyl)-(7-hydroxy-2,3-dihydrobenzo[1,4]oxazin-4-yl)-methanone], the IC50 was in the range of 100 to 1000 nM. As for `CCN(CC)S(=O)(=O)c1ccc2c(c1)N(C(=O)c1cc(Cl)c(O)c(Cl)c1)CCO2` [Example 21, 4-(3,5-dichloro-4-hydroxybenzoyl)-3,4-dihydro-2H-benzo[1,4]oxazine-6-sulfonic acid diethylamide], the figure is 100 to 1000 nM.

As for `O=S(=O)(c1cc(Cl)c(O)c(Cl)c1)N1CCOc2ccccc21` [Example 22, 2,6-dichloro-4-(2,3-dihydrobenzo[1,4]oxazine-4-sulfonyl)phenol], the IC50 was in the range of 1000 to 3000 nM. As for `CC(C)(C)c1ccc2c(c1)N(C(=O)c1cc(Cl)c(O)c(Cl)c1)CCO2` [Example 23, (6-tert-butyl-2,3-dihydrobenzo[1,4]oxazin-4-yl)-(3,5-dichloro-4-hydroxyphenyl)-methanone], the figure is 1000 to 3000 nM. Take `O=C1COc2ccccc2N1C(=O)c1cc(Cl)c(O)c(Cl)c1` [Example 24, 4-(3,5-dichloro-4-hydroxybenzoyl)-4H-benzo[1,4]oxazin-3-one]: the IC50 is 1000 to 3000 nM. Next, `O=C(c1cc(Cl)c(O)c(Cl)c1)N1CCCc2ccccc21` [Example 26, (3,5-dichloro-4-hydroxyphenyl)-(3,4-dihydro-2H-quinolin-1-yl)-methanone]: 100 to 1000 nM; `O=C(c1cc(Cl)c(O)c(Cl)c1)N1CCCCc2ccccc21` [Example 27, (3,5-dichloro-4-hydroxyphenyl)-(2,3,4,5-tetrahydrobenzo[b]azepin-1-yl)-methanone]: 100 to 1000 nM.

Regarding `O=C(c1cnc(O)c(Cl)c1)N1CCOc2ccccc21` [Example 29, (5-chloro-6-hydroxypyridin-3-yl)-(2,3-dihydrobenzo[1,4]oxazin-4-yl)-methanone], the IC50 was 1000 to 3000 nM. As for `O=C(c1cc([N+](=O)[O-])c(O)c([N+](=O)[O-])c1)N1CCOc2ccccc21` [Example 30, (2,3-dihydrobenzo[1,4]oxazin-4-yl)-(4-hydroxy-3,5-dinitrophenyl)-methanone], the figure is 100 to 1000 nM. For `O=C(c1cc(Cl)c(O)c([N+](=O)[O-])c1)N1CCOc2ccccc21` [Example 31, (3-chloro-4-hydroxy-5-nitrophenyl)-(2,3-dihydrobenzo[1,4]oxazin-4-yl)-methanone], the IC50 is under 100 nM. For the compound `O=C(c1cc(Cl)c(O)c(Cl)c1)N1CCOc2ccc(S(=O)(=O)N3CCCC3)cc21` [Example 33, (3,5-dichloro-4-hydroxyphenyl)-[6-(pyrrolidine-1-sulfonyl)-2,3-dihydrobenzo[1,4]oxazin-4-yl]-methanone], the IC50 lay in the range of 100 to 1000 nM.

For `CN(C)S(=O)(=O)c1ccc2c(c1)N(C(=O)c1cc(Cl)c(O)c(Cl)c1)CCO2` [Example 35, 4-(3,5-dichloro-4-hydroxybenzoyl)-3,4-dihydro-2H-benzo[1,4]oxazine-6-sulfonic acid dimethylamide], the IC50 is 1000 to 3000 nM.
